Assay results published in PMC4441091 (Chemical & pharmaceutical bulletin, 2014).
Like-named read-outs stand apart in the source and are kept apart here.

Legend:
[1] = biological target: T1, FASN-TE; rTE (recombinant TE domain of human FASN) (Homo sapiens, UniProt P49327); experiment: fluorogenic thioesterase assay; format: biochemical
[2] = biological target: T1, FASN-TE; rTE (recombinant TE domain of human FASN); experiment: fluorogenic thioesterase assay; format: biochemical; remark: listed apart in the source

T1 sequence (P49327 2218-2511 limits assumed): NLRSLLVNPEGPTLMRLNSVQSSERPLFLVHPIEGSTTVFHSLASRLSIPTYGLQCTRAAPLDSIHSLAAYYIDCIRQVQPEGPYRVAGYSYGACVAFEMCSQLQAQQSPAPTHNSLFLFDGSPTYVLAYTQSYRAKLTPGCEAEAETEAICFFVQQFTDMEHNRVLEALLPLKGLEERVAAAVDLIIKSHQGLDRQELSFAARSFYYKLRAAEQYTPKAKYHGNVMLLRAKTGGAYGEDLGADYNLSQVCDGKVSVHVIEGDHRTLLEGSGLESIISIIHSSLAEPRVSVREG

| SMILES | IC50 [1] [µM] | further results |
| --- | --- | --- |
| CC1=C(Br)C(=O)c2ccccc2C1=O [1a, NS-4390] | – | IC50 ([1]; read-out: rTE IC50, substrate 4-methylumbelliferyl heptanoate): 12.5 µM |
| CC1=CC(=O)c2ccccc2C1=O [1c, menadione] | 21.9 | – |
| CC1=CC(=O)c2c(O)cccc2C1=O [1d, plumbagin] | 10.9 | – |
| O=C1C=CC(=O)c2c(O)cccc21 [1g, juglone] | 0.1 | – |
| O=C1C=CC(=O)c2c(O)ccc(O)c21 [1i, naphthazarin] | – | IC50 [2]: 3.5 µM |

Second part, led by results:

| IC50 [1] [µM] | SMILES | further results |
| --- | --- | --- |
| 26.4 | O=C1C=C(N2CCOCC2)C(=O)c2c(O)cccc21 [1h, 8-Hydroxy-2-morpholinonaphthalene-1,4-dione] | – |
| 6.4 | O=C1C=CC(=O)C(SC2CCCC2)=C1 [2e, 2-(Cyclopentylthio)cyclohexa-2,5-diene-1,4-dione] | – |
| 6.2 | CCCCCCCSC1=CC(=O)C=CC1=O [2f, 2-(Heptylthio)cyclohexa-2,5-diene-1,4-dione] | – |
| 0.2 | O=C1C=CC(=O)C(Sc2ccccc2)=C1 [2g, 2-(Phenylthio)cyclohexa-2,5-diene-1,4-dione] | – |
